These results are taken from patent US20260232644A1, “Compositions Comprising an Inhibitor of Galectin-3” (University of Liverpool, priority 2023, published 2026).

Where a name gives a salt, the structure may show the parent alone.

Experiment [1] concerns human colon cancer SW620 cells. As to the kind of experiment: Galectin-3-mediated SW620 cell adhesion to HUVECs. Format: cell-based. Particulars: Galectin-3 2 μg/ml, various concentrations. Here is the method:
HUVEC cells at 1×10^5 cells/ml in EGM medium were seeded into 24 well plates pre-inserted with 13 mm glass coverslip. The cells were incubated at 37° C. at 5% CO2 for 24 hr for monolayer formation. AGA19+ or SW620 cell suspension (5×10^5 cells/ml in DMEM) was introduced with 5 μl/ml fluorescent cell labelling solution DiL for 30 min at 37° C. The fluorescent labelled cells were washed twice with PBS and resuspended into 1×10^5 cells/ml in DMEM. The cancer cell suspension was then introduced with galectin-3 (2 μg/ml) and various concentrations of the compound inhibitors at 37° C. for 1 hr. The wells were carefully washed twice with PBS to remove the non-adhesion cells before the cells in the wells were fixed with 2% paraformaldehyde for 10 min. The glass coverslip was carefully removed from the plate, placed on a glass slide. After addition of fluorescence mounting medium containing DAPI, fluorescence labelled cells were quantified under a fluorescence microscope.

Experiment [2] deals with human melanoma ACA19 cells. As to the kind of experiment: ACA19 cell invasion through HUVECs (transwell). Format: cell-based. The conditions noted are these: compound 20 μM, transwells. How it is done:
(§1) HUVECs were plated at a density of 1.5×10^4 cells in 8 μm pore transwells in 24-well plate and cultured for three days to allow formation of tight monolayer. The integrity of HUVEC monolayer was confirmed by measuring TEER and only monolayers with TEER reading>800 Ω/cm^2 were used for the invasion assay. AGA19+ or SW620 cell suspension (5×10^5 cells/ml in DMEM) was introduced with 5 μl/ml fluorescent cell labelling solution DiL for 30 min at 37° C. The fluorescence labelled cells were washed twice with PBS and resuspended into 1×10^5 cells/ml in DMEM. The cancer cell suspension was then incubated with or without galectin-3 (2 μg/ml) or various concentrations of the compound inhibitors or lactose at 37° C. for 20 min before introduction to the HUVEC monolayers for 24 hr at 37° C. The cells at the upper side of the trans-well inserts were gently removed with cotton swabs. The cells migrated to the bottom side of the transwells were fixed with 2% paraformaldehyde for 10 min. The trans-well membrane was removed and placed on glass slides. After addition of fluorescence mounting medium containing DAPI, the fluorescence labelled cells on the membrane were quantified under a fluorescence microscope.

Experiment [3] has as its system human colon cancer SW620 cells. As to the kind of experiment: SW620 cell invasion through HUVECs (transwell). Format: cell-based. Particulars: compound 20 μM, transwells. Here is the method:
as §1, with “The cancer cell suspension was then incubated with or without galectin-3 (2 μg/ml) or various concentrations of the compound inhibitors or lactose at 37° C. for 20 min before introduction to the HUVEC monolayers for 24 hr at 37° C.” left out

The subject of experiment [4] is THP-1 differentiated macrophages. As to the kind of experiment: Galectin-3-induced TNFα secretion from macrophages (ELISA). It is filed as cell-based. The conditions noted are these: Galectin-3 10 μg/ml, various concentrations. Here is the method: Effect of the compound inhibitors on secretion of pro-inflammatory cytokines from macrophages were assessed in THP-1 monocyte differentiated macrophages. THP-1 cells were induced to differentiation into macrophages by incubation with 10 ng/ml PMA for 48 h at 37° C. The culture medium was then replaced with fresh medium without or with 10 μg/ml galectin-3 and various concentrations of the compound inhibitors for 24 h at 37° C. The culture medium was collected and the concentrations of TNFα and IL-1β in the culture medium were determined by TNFα and IL-1β ELISA.
On the technique in general: An ELISA detects its analyte on a solid surface through an enzyme-linked reagent.

Experiment [5] deals with triple-negative breast cancer MDA-MB-231 cells. In words: Triple-negative breast cancer cell adhesion to basement matrix. Particulars: Homo sapiens, MDA-MB-231. Format: cell-based, human. Here is the method:
(§2) Nanty-six well plates were coated with 50 μl Matrigel (1:30 diluted in PBS) at 37° C. for 1 hour.
(§3) Cancer cells, pre-labelled with fluorescent die DiI at 37° C. for 20 minutes, were washed twice with PBS and resuspended into 3×10^4 cells/ml in serum-free medium. The matrix-coated 96-well plates were washed twice with PBS before introduction of 100μ cell suspension with different concentrations of the inhibitors or PBS/DMSO (control) for 1 hour at 37° C. The plates were washed twice with PBS before three randomly selected Field of Views (FOVs) were recorded by fluorescence microscope and number of adhesion cells were quantified by Image J.
(§4) MDAMB-231 or PANC-1 cells were seeded into 6-well plate (2×10^5 cells) and cultured at 37° C. for 24 hour. Galectin-3 CRISPR Cas9 Knockout plasmid (2 μg) and galectin-3 HDR plasmid (2 μg) was mixed with Plasmid Transfection Medium (21 μl) for 5 minutes before addition to a mixture of lipofectamine STEM Transfection Reagent (STEM00001) (1 μl) and Plasmid Transfection Medium (25 μl) for 10 minutes at room temperature. The cells in the 6-well plates were washed and introduced with the Plasmid DNA/Lipofectamine STEM Transfection Reagent complex at 37° C. for 24 hour. The culture medium was replaced with fresh antibiotics-free medium for further 24 hour before introduction of 10 μg/mL puromycin-containing medium every three days. Successful co-transfection of the CRISPR/Cas9 KO Plasmid and HDR Plasmid was confirmed by expression of red fluorescence protein of the cells. Galectin-3 knockout in the cells was further confirmed by immunoblotting.

Experiment [6] concerns human pancreatic cancer PANC1 cells. As to the kind of experiment: Pancreatic cancer cell adhesion to basement matrix. Format: cell-based. Here is the method: as §2, §3, §4

Consider `NC1CCN(c2nc3c(cc2F)c(=O)c(C(=O)O)cn3-c2ccc(F)cc2F)C1` (centres unmarked) [Formula X, Tosufloxacin tosylate], for which, in experiment [1], the “Inhibition of SW620 cell adhesion to HUVECs” value is “dose-dependent inhibition”. Further, in experiment [2], the “Inhibition of Galectin-3-mediated invasion of ACA19 cells through HUVECs” value was “significant inhibition”. Further, the “Inhibition of galectin-3-mediated invasion of SW620 cells through HUVECs” value in experiment [3] is “significant inhibition”. The “Inhibition of galectin-3-induced TNFα secretion” value in experiment [4] is “dose-dependent inhibition”. Moreover, in experiment [5], the IC50 (as a rule, the midpoint of a concentration-inhibition curve) is around 10 µM. Besides, in experiment [6] (CRISPR/Cas9 Gal3KO cells), the “Effect on adhesion of galectin-3 knockout (Gal3KO) PANC1 cells” value is given as “lost their inhibitory effect”. The “Effect on adhesion of non-transfected (con) PANC1 cells” value in experiment [6] (control cells) is “significant reduction”. For the same compound, the “Inhibition of PANC1 cell adhesion to matrix” value in experiment [6] (different concentrations) was “dose-dependent inhibition”.
